Columns and labels:
Cytochrome P450 3A4 = Cytochrome P450 3A4 (Homo sapiens, UniProt P08684); assay: Inhibition of CYP3A4
Cytochrome P450 2D6 = Cytochrome P450 2D6 (Homo sapiens, UniProt P10635); assay: Inhibition of CYP2D6
Sequence of Cytochrome P450 2D6 (P10635 whole entry): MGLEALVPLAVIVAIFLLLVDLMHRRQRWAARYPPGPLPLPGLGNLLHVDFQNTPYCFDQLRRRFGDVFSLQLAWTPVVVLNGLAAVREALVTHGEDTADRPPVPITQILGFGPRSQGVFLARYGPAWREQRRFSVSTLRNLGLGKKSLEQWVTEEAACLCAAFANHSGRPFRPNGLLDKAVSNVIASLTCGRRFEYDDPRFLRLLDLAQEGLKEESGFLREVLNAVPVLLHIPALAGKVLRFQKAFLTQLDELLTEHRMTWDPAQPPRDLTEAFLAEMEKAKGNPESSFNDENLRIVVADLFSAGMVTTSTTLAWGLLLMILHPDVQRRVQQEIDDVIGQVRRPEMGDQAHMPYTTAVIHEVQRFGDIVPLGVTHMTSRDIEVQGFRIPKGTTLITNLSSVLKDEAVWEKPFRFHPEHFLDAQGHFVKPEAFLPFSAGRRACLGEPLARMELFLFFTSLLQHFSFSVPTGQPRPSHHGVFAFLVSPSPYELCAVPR

Sequence of Cytochrome P450 3A4 (P08684 whole entry): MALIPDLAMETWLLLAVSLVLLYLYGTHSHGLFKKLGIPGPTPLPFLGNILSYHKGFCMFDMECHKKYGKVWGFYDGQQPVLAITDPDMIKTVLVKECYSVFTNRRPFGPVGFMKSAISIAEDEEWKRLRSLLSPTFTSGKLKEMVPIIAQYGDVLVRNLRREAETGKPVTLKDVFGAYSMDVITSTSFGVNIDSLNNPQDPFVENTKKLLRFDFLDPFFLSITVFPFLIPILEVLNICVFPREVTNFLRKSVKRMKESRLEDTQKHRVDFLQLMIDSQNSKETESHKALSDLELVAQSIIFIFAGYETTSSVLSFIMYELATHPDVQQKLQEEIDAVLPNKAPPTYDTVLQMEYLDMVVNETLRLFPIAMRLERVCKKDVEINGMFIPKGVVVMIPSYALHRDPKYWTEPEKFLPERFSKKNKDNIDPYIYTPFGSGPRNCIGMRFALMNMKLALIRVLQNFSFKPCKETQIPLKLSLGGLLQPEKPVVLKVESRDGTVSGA

IC50 (Cytochrome P450 3A4) [µM]	IC50 (Cytochrome P450 2D6) [µM]	Compound
25	33	O=C(C1CCC(F)(F)CC1)N1CC(c2nc(-c3cccc(Cl)c3)no2)C1
25	40	CC1CCCCC1C(=O)N1CC(c2nc(-c3cccc(F)c3)no2)C1 (centres undefined)
